Earlier results on one compound are cited in patent US12090135B2, “Neutral pH compositions of docetaxel and human serum albumin” (Zhuhai Beihai Biotech Co., Ltd., priority 2016, dated 2024).

Entries after “also recorded” stand apart in the source; their conditions may differ.

For data set [1], the system named is microtubule depolymerization.

For `CC(=O)O[C@@]12CO[C@@H]1C[C@H](O)[C@@]1(C)C(=O)[C@H](O)C3=C(C)[C@@H](OC(=O)[C@H](O)[C@@H](NC(=O)OC(C)(C)C)c4ccccc4)C[C@@](O)([C@@H](OC(=O)c4ccccc4)[C@H]21)C3(C)C` [Docetaxel], the Water solubility result is reported as “practically insoluble in water; also recorded: very poor water solubility”. Also, the “in vitro binding to plasma proteins” value in the data set with plasma proteins (in three cancer patients) is “approximately 97%”. In addition, the protein bound result in the data set on plasma proteins (in vitro studies, mainly to al-acid glycoprotein, albumin, and lipoproteins) is “about 94%”. In addition, in data set [1], the “Potency in inhibiting microtubule depolymerization relative to paclitaxel” value is reported as “about twice as potent as paclitaxel”.
